Assay results published in article PMC3433420 (PLoS ONE, 2012).
Where two headings read alike, the source gives them in different places. Residues, ends and D or L forms follow the SMILES beside them.

Legend:
[1] = target: T1, SRC SH2 domain (Homo sapiens, UniProt P12931); test: FP saturation binding assay; settings: protein SRC; high-confidence ErbB interactions; mean of replicate hits
T1 construct: between the c-Src SH2 domain and ErbB1 in our FP assay; 6X His; thioredoxin; made in house; host or cells: E. coli BL21(DE3)pLysS
T1 sequence (P12931 151-248 limits assumed): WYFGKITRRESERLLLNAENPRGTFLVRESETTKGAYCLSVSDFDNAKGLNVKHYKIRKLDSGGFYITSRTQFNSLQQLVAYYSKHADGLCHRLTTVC
Method in brief: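 Rhodamine-labeled phosphopeptides (10 nM final) titrated with SH2 domain protein (0.002–10 µM, 12 points) in 20 mM HEPES, 100 mM KCl, 0.1% Tween-20, 5 mM DTT, pH 7.8; 20 min, room temperature, dark. FP read at 530/555 nm; KD fitted by nonlinear regression after thioredoxin background correction and outlier removal.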

[2] = target: SH2 and PTB domains; settings: original PM interactions, ref Jones et al. 2006 / Kaushansky et al. Chem and Biol 2008, cited from earlier work
Text: Supplement pone.0044471.s022.xlsx, sheet "Most recent PM interactions" | column: Kd || Supplement pone.0044471.s022.xlsx, sheet "All original PM interactions" | column: Kd

Compound: CC(C)C[C@H](NC(=O)[C@H](Cc1ccc(OP(=O)(O)O)cc1)NC(=O)[C@H](CC(C)C)NC(=O)[C@@H]1CCCN1C(=O)[C@H](CCC(=O)O)NC(=O)[C@H](CC(N)=O)NC(=O)[C@@H](NC(=O)[C@H](Cc1ccc(O)cc1)NC(=O)[C@H](CCC(=O)O)NC(=O)[C@H](CC(=O)O)NC(=O)[C@@H](N)CCC(=O)O)C(C)C)C(=O)N[C@@H](CC(N)=O)C(=O)N[C@H](C(=O)N[C@@H](Cc1ccccc1)C(=O)N[C@@H](C)C(=O)N[C@@H](CC(N)=O)C(=O)N[C@H](C(=O)N[C@@H](CC(=O)O)C(=O)O)[C@@H](C)O)[C@@H](C)O [ErbB4 1208 18-mer] (HELM PEPTIDE1{E.D.E.Y.V.N.E.P.L.[O=C([C@H](Cc1ccc(OP(=O)(O)O)cc1)N[*:1])[*:2]].L.N.T.F.A.N.T.D}$$$$V2.0)
- Kd [1]: 5840 nM

Compound: DNLYpYWDQDPPEd [ErbB2 pY1222, N-terminally rhodamine-labeled 13-mer phosphopeptide]
- Kd ([2]; Protein ABL1): 1840 nM
- Kd ([2]; Protein ABL2): 190 nM
- Kd ([2]; Protein BCAR3): 2000 nM
- Kd ([2]; Protein BLK): 2000 nM
- Kd ([2]; Protein BMX): 2000 nM
- Kd ([2]; Protein BTK): 2000 nM
- Kd ([2]; Protein CRKL): 1460 nM
- Kd ([2]; Protein DAPP1): 2000 nM
- Kd ([2]; Protein FGR): 2000 nM
- Kd ([2]; Protein GRB10): 490 nM
- Kd ([2]; Protein HSH2D): 2000 nM
- Kd ([2]; Protein ITK): 2000 nM
- Kd ([2]; Protein NCK1): 2000 nM
- Kd ([2]; Protein PIK3R1-C): 2000 nM
- Kd ([2]; Protein PIK3R1-NC): 1840 nM
- Kd ([2]; Protein PIK3R2-NC): 2000 nM
- Kd ([2]; Protein PIK3R3-C): 2000 nM
- Kd ([2]; Protein PIK3R3-NC): 780 nM
- Kd ([2]; Protein PLCG1-N): 2000 nM
- Kd ([2]; Protein PLCG1-NC): 1790 nM
- Kd ([2]; Protein PLCG2-N): 2000 nM
- Kd ([2]; Protein PLCG2-NC): 2000 nM
- Kd ([2]; Protein PTPN6-C): 2000 nM
- Kd ([2]; Protein PTPN11-N): 2000 nM
- Kd ([2]; Protein RASA1-C): 2000 nM
- Kd ([2]; Protein RASA1-N): 500 nM
- Kd ([2]; Protein RASA1-NC): 2000 nM
- Kd ([2]; Protein SH2B2): 1470 nM
- Kd ([2]; Protein SH2B3): 2000 nM
- Kd ([2]; Protein SH2D1A): 2000 nM
- Kd ([2]; Protein SH2D1B): 2000 nM
- Kd ([2]; Protein SH2D3A): 1600 nM
- Kd ([2]; Protein SH2D3C): 710 nM
- Kd ([2]; Protein SHC1-PTB): 90 nM
- Kd ([2]; Protein SHC1): 2000 nM
- Kd ([2]; Protein SHC2-PTB): 460 nM
- Kd ([2]; Protein SHC3): 1710 nM
- Kd ([2]; Protein SHC4): 2000 nM
- Kd ([2]; Protein SHD): 2000 nM
- Kd ([2]; Protein SHF): 2000 nM
- Kd ([2]; Protein SLA2): 2000 nM
- Kd ([2]; Protein SLA): 2000 nM
- Kd ([2]; Protein SOCS1): 1920 nM
- Kd ([2]; Protein SOCS2): 2000 nM
- Kd ([2]; Protein SOCS3): 2000 nM
- Kd ([2]; Protein SOCS5): 2000 nM
- Kd ([2]; Protein SOCS6): 2000 nM
- Kd ([2]; Protein SRC): 2000 nM
- Kd ([2]; Protein SUPT6H): 2000 nM
- Kd ([2]; Protein SYK-C): 1970 nM
- Kd ([2]; Protein SYK-N): 200 nM
- Kd ([2]; Protein SYK-NC): 460 nM
- Kd ([2]; Protein TEC): 1610 nM
- Kd ([2]; Protein TENC1): 840 nM
- Kd ([2]; Protein TNS1): 2000 nM
- Kd ([2]; Protein TNS3): 1290 nM
- Kd ([2]; Protein TXK): 2000 nM
- Kd ([2]; Protein VAV1): 2000 nM
- Kd ([2]; Protein VAV2): 2000 nM
- Kd ([2]; Protein VAV3): 2000 nM
- Kd ([2]; Protein YES1): 2000 nM
